Experiments:
Type in all cases: binding
VdesOBP2 = molecular target: T1, VdesOBP2 (Varroa destructor, UniProt A0A7M7JBN7); test: intrinsic tryptophan fluorescence quenching; conditions: excitation 295 nm, emission 335-340 nm
T1 sequence (A0A7M7JBN7 16-163 limits assumed): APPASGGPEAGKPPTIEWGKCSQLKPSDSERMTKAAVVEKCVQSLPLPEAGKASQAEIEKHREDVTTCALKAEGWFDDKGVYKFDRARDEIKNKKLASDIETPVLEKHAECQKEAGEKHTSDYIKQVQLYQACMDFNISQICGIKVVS

VdesOBP1 = molecular target: T2, VdesOBP1 (Varroa destructor, UniProt A0A7M7KVA6); test: intrinsic tryptophan fluorescence quenching
T2 construct: 147 residues; monomer
T2 sequence (A0A7M7KVA6 16-162): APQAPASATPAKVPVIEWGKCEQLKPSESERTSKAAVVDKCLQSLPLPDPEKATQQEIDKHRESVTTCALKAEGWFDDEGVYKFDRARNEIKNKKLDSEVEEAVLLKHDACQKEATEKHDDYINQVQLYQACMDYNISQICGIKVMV

VdesOBP5 = molecular target: T3, VdesOBP5 (Varroa destructor, UniProt A0A7M7KHR4); test: fluorescent probe titration; conditions: read-out: KNPN
T3 sequence (A0A7M7KHR4 22-231): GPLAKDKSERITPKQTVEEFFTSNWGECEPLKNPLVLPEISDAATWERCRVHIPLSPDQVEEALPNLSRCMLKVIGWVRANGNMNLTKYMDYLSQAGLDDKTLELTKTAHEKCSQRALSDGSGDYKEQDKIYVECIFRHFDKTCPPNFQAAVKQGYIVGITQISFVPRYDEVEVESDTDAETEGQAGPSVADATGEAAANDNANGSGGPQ
Text: fluorescent probe titration on VdesOBP5 | with VdesOBP4 and VdesOBP5 we obtained clear binding curves using 1-NPN as the fluorescent reporter

[1] = excitation 295 nm, emission 335-340 nm

With CC1=C(C=O)C(C)(C)CC=C1 [safranal] the “quenching of intrinsic tryptophan fluorescence” value (“quenching” below) (VdesOBP2) was “they determined significant quenching of intrinsic tryptophan fluorescence in VdesOBP1 and VdesOBP2” and the “quenching” value (VdesOBP1; [1]) was “they determined significant quenching of intrinsic tryptophan fluorescence in VdesOBP1 and VdesOBP2”.
In the case of COc1cc(C=O)ccc1O [vanillin], the “quenching” value (VdesOBP2) is reported as “they determined significant quenching of intrinsic tryptophan fluorescence in VdesOBP1 and VdesOBP2” and the “quenching” value (VdesOBP1; [1]) is reported as “they determined significant quenching of intrinsic tryptophan fluorescence in VdesOBP1 and VdesOBP2”.
In the case of c1ccc(Nc2cccc3ccccc23)cc1 [N-phenyl-1-naphthylamine], the “quenching” value (VdesOBP1; dose-dependent quenching, probe emission itself unchanged) is reported as “we observed a dose-dependent quenching of the intrinsic tryptophan fluorescence” and the Kd (VdesOBP5) is reported as 4.3 µM.
COc1cc(/C=C/C=O)ccc1O [coniferyl aldehyde] was tested, and the “quenching” value (VdesOBP2) was “they determined significant quenching of intrinsic tryptophan fluorescence in VdesOBP1 and VdesOBP2” and the “quenching” value (VdesOBP1; [1]) was “they determined significant quenching of intrinsic tryptophan fluorescence in VdesOBP1 and VdesOBP2”.

Source: publication PMC8222343, “A new non-classical fold of varroa odorant-binding proteins reveals a wide open internal cavity” (Scientific Reports, 2021)
